# In ChEMBL document CHEMBL3885861, “Open TG-GATES”:
# Species on record: Rattus norvegicus
# Test: Open TG-GATES - Regimen: Single
# Type: toxicity, organism-based, Sprague-Dawley
# Parameters: regimen Single, gender Male, age 6 weeks
# Details: in vivo, po, 0 mg/kg, route gavage, dose level Control; for APTT / Bas / Eos / Fbg / Hb / Ht / Lym / MCH / MCHC / MCV / Mono / Neu / PT / Plat / RBC / Ret / WBC: tissue Blood; for KIDNEY_L / KIDNEY_R / KIDNEY_TOTAL: tissue Kidney; for LIVER: tissue Liver; for A/G / ALP / ALT / AST / BUN / CRE / Ca / Cl / DBIL / GLC / IP / K / LDH / Na / PL / RALB / TBIL / TC / TG / TP / gamma-GTP: tissue Plasma
smiles,measurement,setting,value
CCSCC[C@H](N)C(=O)O [ETHIONINE],TERMINAL_BW,3 h,218.5 g
same,APTT,3 h,19 s
same,Bas,3 h,0%
same,Eos,3 h,1%
same,Fbg,3 h,216.6 mg/dL
same,Hb,3 h,13.4 g/dL
same,Ht,3 h,39.8%
same,Lym,3 h,79.6%
same,MCH,3 h,21.1 pg
same,MCHC,3 h,33.5%
same,MCV,3 h,62.9 fL
same,Mono,3 h,3%
same,Neu,3 h,16.4%
same,PT,3 h,12.5 s
same,Plat,3 h,122 x10_4/uL
same,RBC,3 h,632.8 x10_4/ul
same,Ret,3 h,7.4%
same,WBC,3 h,83.3 x10_2/uL
same,KIDNEY_L,3 h,1 g
same,KIDNEY_R,3 h,1 g
same,KIDNEY_TOTAL,3 h,1.9 g
same,LIVER,3 h,10.3 g
same,A/G,3 h,1.6
same,ALP,3 h,974.2 IU/L
same,ALT,3 h,35.6 IU/L
same,AST,3 h,64.4 IU/L
same,BUN,3 h,11.6 mg/dL
same,CRE,3 h,0.4 mg/dL
same,Ca,3 h,10.6 mg/dL
same,Cl,3 h,100.6 meq/L
same,DBIL,3 h,0.066 mg/dL
same,GLC,3 h,196.6 mg/dL
same,IP,3 h,9.3 mg/dL
same,K,3 h,3.9 meq/L
same,LDH,3 h,172.8 IU/L
same,Na,3 h,140.2 meq/L
same,PL,3 h,136.8 mg/dL
same,RALB,3 h,3.3 g/dL
same,TBIL,3 h,0.1 mg/dL
same,TC,3 h,70.6 mg/dL
same,TG,3 h,80.8 mg/dL
same,TP,3 h,5.4 g/dL
same,gamma-GTP,3 h,1 IU/L
same,TERMINAL_BW,6 h,211.6 g
same,APTT,6 h,18.9 s
same,Bas,6 h,0%
same,Eos,6 h,1%
same,Fbg,6 h,229 mg/dL
same,Hb,6 h,13.6 g/dL
same,Ht,6 h,40%
same,Lym,6 h,81.8%
same,MCH,6 h,21.3 pg
same,MCHC,6 h,34.1%
same,MCV,6 h,62.5 fL
same,Mono,6 h,2.8%
same,Neu,6 h,13.2%
same,PT,6 h,12.8 s
same,Plat,6 h,111.7 x10_4/uL
same,RBC,6 h,640.6 x10_4/ul
same,Ret,6 h,6.9%
same,WBC,6 h,79.1 x10_2/uL
same,KIDNEY_L,6 h,1 g
same,KIDNEY_R,6 h,0.9 g
same,KIDNEY_TOTAL,6 h,1.9 g
same,LIVER,6 h,9 g
same,A/G,6 h,1.5
same,ALP,6 h,1036.8 IU/L
same,ALT,6 h,38.6 IU/L
same,AST,6 h,70.6 IU/L
same,BUN,6 h,10.6 mg/dL
same,CRE,6 h,0.4 mg/dL
same,Ca,6 h,10.4 mg/dL
same,Cl,6 h,102.4 meq/L
same,DBIL,6 h,0.076 mg/dL
same,GLC,6 h,196 mg/dL
same,IP,6 h,9.5 mg/dL
same,K,6 h,3.7 meq/L
same,LDH,6 h,189 IU/L
same,Na,6 h,140.6 meq/L
same,PL,6 h,145 mg/dL
same,RALB,6 h,3.3 g/dL
same,TBIL,6 h,0.1 mg/dL
same,TC,6 h,78 mg/dL
same,TG,6 h,88.6 mg/dL
same,TP,6 h,5.5 g/dL
same,gamma-GTP,6 h,1 IU/L
same,TERMINAL_BW,9 h,213.3 g
same,APTT,9 h,19 s
same,Bas,9 h,0%
same,Eos,9 h,1%
same,Fbg,9 h,224.8 mg/dL
same,Hb,9 h,13 g/dL
same,Ht,9 h,38.3%
same,Lym,9 h,76.8%
same,MCH,9 h,21.2 pg
same,MCHC,9 h,34%
same,MCV,9 h,62.4 fL
same,Mono,9 h,2.4%
same,Neu,9 h,19.2%
same,PT,9 h,13 s
same,Plat,9 h,123.8 x10_4/uL
same,RBC,9 h,615 x10_4/ul
same,Ret,9 h,6.9%
same,WBC,9 h,90.6 x10_2/uL
same,KIDNEY_L,9 h,1 g
same,KIDNEY_R,9 h,1 g
same,KIDNEY_TOTAL,9 h,1.9 g
same,LIVER,9 h,9.1 g
same,A/G,9 h,1.5
same,ALP,9 h,936 IU/L
same,ALT,9 h,31.2 IU/L
same,AST,9 h,63 IU/L
same,BUN,9 h,10 mg/dL
same,CRE,9 h,0.4 mg/dL
same,Ca,9 h,10.4 mg/dL
same,Cl,9 h,102.6 meq/L
same,DBIL,9 h,0.062 mg/dL
same,GLC,9 h,203.4 mg/dL
same,IP,9 h,9.4 mg/dL
same,K,9 h,3.6 meq/L
same,LDH,9 h,187.2 IU/L
same,Na,9 h,141.2 meq/L
same,PL,9 h,140 mg/dL
same,RALB,9 h,3.3 g/dL
same,TBIL,9 h,0.1 mg/dL
same,TC,9 h,79.6 mg/dL
same,TG,9 h,53.6 mg/dL
same,TP,9 h,5.5 g/dL
same,gamma-GTP,9 h,1 IU/L
same,TERMINAL_BW,24 h,228.7 g
same,APTT,24 h,20.7 s
same,Bas,24 h,0%
same,Eos,24 h,1%
same,Fbg,24 h,226 mg/dL
same,Hb,24 h,14 g/dL
same,Ht,24 h,41.5%
same,Lym,24 h,80.6%
same,MCH,24 h,21.8 pg
same,MCHC,24 h,33.8%
same,MCV,24 h,64.4 fL
same,Mono,24 h,2.6%
same,Neu,24 h,14.8%
same,PT,24 h,12.1 s
same,Plat,24 h,126 x10_4/uL
same,RBC,24 h,644.2 x10_4/ul
same,Ret,24 h,6.6%
same,WBC,24 h,105.3 x10_2/uL
same,KIDNEY_L,24 h,1 g
same,KIDNEY_R,24 h,1 g
same,KIDNEY_TOTAL,24 h,2 g
same,LIVER,24 h,11.1 g
same,A/G,24 h,1.5
same,ALP,24 h,936 IU/L
same,ALT,24 h,41 IU/L
same,AST,24 h,66.8 IU/L
same,BUN,24 h,14.4 mg/dL
same,CRE,24 h,0.4 mg/dL
same,Ca,24 h,10.7 mg/dL
same,Cl,24 h,102 meq/L
same,DBIL,24 h,0.096 mg/dL
same,GLC,24 h,211.6 mg/dL
same,IP,24 h,8.1 mg/dL
same,K,24 h,3.8 meq/L
same,LDH,24 h,183.8 IU/L
same,Na,24 h,140.2 meq/L
same,PL,24 h,156.6 mg/dL
same,RALB,24 h,3.4 g/dL
same,TBIL,24 h,0.1 mg/dL
same,TC,24 h,81 mg/dL
same,TG,24 h,99.2 mg/dL
same,TP,24 h,5.7 g/dL
same,gamma-GTP,24 h,1.2 IU/L
